Test results as given in US9714469B2, “Composition for increasing the lipophobicity of a watch-making component” (Rolex SA, priority 2010, dated 2017).

What was measured:
[1] = Contact angle of test oil on coated watch-making surfaces (epilame effect); format: physicochemical; settings: for contact angle of the gold-plated brass part with the test oil: molecule alone at 10^−3 M, soaking 30 min; for contact angle test oil: molecule alone 10^−3 M in IPA, soaking 5 min
Experimental: (§1) The epilame effect is conventionally evaluated by measuring the contact angle of the lubricants or of a test fluid (water, test liquids NSSC test) on the surface of the component.
The increased epilame effect permitted by the composition of the invention must be such that this contact angle with a watch oil is greater than 30°, preferably 35°, even more preferably 40°, as such an angle corresponds to very high epilame efficacy (see Renaud 1956, Osowiecki 1962 and Massin 1971).
(§2) Deposit • Place the watch part or parts in a container with an adapted shape, • Cover the part or parts with coating solution (thiol, BP or BP/thiol-PFPE mixture), • Incubate between 5 minutes and 360 minutes, • Eliminate the supernatant—remove the part, • The part is drip dried (centrifugation).
Dehydration—Rinsing • The part which received the deposit is placed in an oven at 120° C. for a period ranging from 6 to 15 h (only for rubies and silicon), • The part is brought back to room temperature then immersed in IPA under ultrasound for 2 minutes, • The part is dried under a stream of hot air. […]
The lipophobic effect was evaluated by measuring the contact angles of a test oil having surface tension of 33 mN/m on different surfaces. […]
In accordance with the reference articles in the watch-making literature (Renaud 1956, Osowiecki 1962 and Massin 1971), an angle of over 40° with a watch lubricant corresponds to very high epilame efficacy. […]
On the basis of the kinetics of molecule I.1, the following parameters were used to test the four other thiol-PF and thiol-PFPE molecules (I.2, I.3, I.4, I.5): • Concentration: 10^−3 M for each compound I.1 to I.5 • Solvent: Isopropyl alcohol (IPA) or Biosane T212 (MMCC) • Soaking Time: 30 minutes • Rinsing time: 2 minutes under ultrasound • Drying: hot air
Evaluation of functional properties was carried out by measuring the contact angles between the surface of the watch-making component and the drop of watch-making oil. It is noticeable that the concentration of 10^−3 M gives results that comply with the desired epilame effect (angle greater than 30°) for all molecules I.1 to I.5.
(§3) The properties of thiol and bisphosphonate molecules in isolation were measured on the surfaces of steel and gold-plated substrates using solutions at 10^−3 M and in isopropanol in accordance with the protocol described in example 3 above, with a soaking time of 5 minutes.

[2] = Contact angle of water drops on coated watch-making surfaces; format: physicochemical; settings: molecule alone 10^−3 M in IPA, soaking 5 min
Experimental: as §1, §2
Dehydration—Rinsing • The part which received the deposit is placed in an oven at 120° C. for a period ranging from 6 to 15 h (only for rubies and silicon), • The part is brought back to room temperature then immersed in IPA under ultrasound for 2 minutes, • The part is dried under a stream of hot air.
Different surfaces were treated with solutions of thiol I.3 and BP II.1 molecules. […]
According to the epilame method described in paragraphs 3 and 5.1, the materials were treated by the mixture of the thiol molecule I.3. with the BP molecule II.1. dissolved in IPA. The contact angles were measured before and after treatment of the surface. […]
as §3

SMILES	contact angle of the gold-plated brass part with the test oil ([1]; solvent IPA) [°]	contact angle of the gold-plated brass part with the test oil ([1]; solvent MMCC (Biosane T212)) [°]	contact angle H2O ([2]; Au (gold-plated brass)) [°]	contact angle H2O ([2]; Steel) [°]	ranking of contact angles among the molecules [1]	contact angle test oil ([1]; Au (gold-plated brass)) [°]	contact angle test oil ([1]; Steel) [°]
O=C(NCCS)C(F)(F)C(F)(F)C(F)(F)C(F)(F)C(F)(F)C(F)(F)C(F)(F)F [I.5]	67.6 ± 3.6	49.5 ± 2.5	–	–	–	–	–
O=C(NCCCCCCS)C(F)(OC(F)(F)C(F)(OC(F)(F)C(F)(OC(F)(F)C(F)(OC(F)(F)C(F)(OC(F)(F)C(F)(F)C(F)(F)F)C(F)(F)F)C(F)(F)F)C(F)(F)F)C(F)(F)F)C(F)(F)F (stereo not drawn) [I.3]	75.7 ± 6	63.8 ± 2.8	96.4	70.2	highest	69.0	33.5
